Patent publication US12162888B2, “Carboxamides as ubiquitin-specific protease inhibitors” (Valo Early Discovery, Inc., priority 2018, dated 2024)

Molecular target: T1, USP28 (His-tagged USP28-FL-mammalian) (Homo sapiens, UniProt Q96RU2)
T1 construct: Expression of USP28 (1-1077)-TEV-6*His (pTT5 vector) was carried out in Expi293f cells; made in house; host or cells: Expi293F cells (pTT5 vector)
T1 sequence (Q96RU2 1-1077): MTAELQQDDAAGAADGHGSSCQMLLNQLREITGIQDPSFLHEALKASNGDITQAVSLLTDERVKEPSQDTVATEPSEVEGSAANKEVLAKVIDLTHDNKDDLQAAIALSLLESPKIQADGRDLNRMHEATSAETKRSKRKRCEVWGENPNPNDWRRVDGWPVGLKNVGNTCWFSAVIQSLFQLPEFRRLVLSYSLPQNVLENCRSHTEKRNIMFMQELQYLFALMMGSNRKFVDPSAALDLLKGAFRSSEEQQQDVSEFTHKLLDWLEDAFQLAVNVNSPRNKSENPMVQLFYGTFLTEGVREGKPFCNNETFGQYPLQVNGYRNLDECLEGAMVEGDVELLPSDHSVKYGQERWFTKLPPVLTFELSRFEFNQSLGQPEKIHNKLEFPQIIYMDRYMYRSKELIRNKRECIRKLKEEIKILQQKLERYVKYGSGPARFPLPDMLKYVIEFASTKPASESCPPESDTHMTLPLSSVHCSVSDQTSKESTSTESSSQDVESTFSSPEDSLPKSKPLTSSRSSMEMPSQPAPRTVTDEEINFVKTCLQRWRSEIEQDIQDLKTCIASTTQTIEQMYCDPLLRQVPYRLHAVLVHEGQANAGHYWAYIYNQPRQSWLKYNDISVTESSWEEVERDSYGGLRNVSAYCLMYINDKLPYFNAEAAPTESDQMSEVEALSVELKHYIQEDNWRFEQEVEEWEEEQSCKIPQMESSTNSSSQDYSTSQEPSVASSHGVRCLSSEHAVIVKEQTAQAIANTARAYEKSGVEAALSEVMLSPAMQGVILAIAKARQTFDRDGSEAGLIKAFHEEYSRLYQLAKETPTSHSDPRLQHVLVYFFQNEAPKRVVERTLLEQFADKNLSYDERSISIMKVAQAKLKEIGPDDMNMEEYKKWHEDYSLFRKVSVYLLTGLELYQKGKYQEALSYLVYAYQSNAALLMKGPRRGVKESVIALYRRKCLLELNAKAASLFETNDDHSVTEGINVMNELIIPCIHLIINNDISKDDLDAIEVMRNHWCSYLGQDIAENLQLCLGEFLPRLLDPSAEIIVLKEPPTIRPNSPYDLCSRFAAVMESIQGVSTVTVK
Assay: Ubiquitin-Rhodamine 110 Assay for USP28 Activity, Example A-1(a)
Format: biochemical
Details: biochemical IC50 range, Ubiquitin-Rhodamine 110 assay, read-out: USP28 A-1(a)
How it was run: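 IC50s were fitted with a 4-parameter logistic to percent inhibition relative to no-enzyme and DMSO controls, using Rhodamine 110 fluorescence (485/535 nm) released from 25 nM Ub-Rh110. The enzyme was Expi293F-expressed USP28-FL-His at […], preincubated 30 min with compound (10-point, 25 μM top) in Tris pH 8.0 buffer containing BGG and Triton X-100. Substrate turnover ran 45 min at room temperature and was stopped with 10 mM citric acid.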

Structure (SMILES) | IC50 [nM]
Cc1ccc2c(N)c(C(=O)N[C@H]3COc4nc(N5C[C@H](N)C6(C5)OCCO6)ccc4C3)sc2n1 [Example 543, 3-amino-N-[(3R)-7-[(9S)-9-amino-1,4-dioxa-7-azaspiro[4.4]nonan-7-yl]-2H,3H,4H-pyrano[2,3-b]pyridin-3-yl]-6-methylthieno[2,3-b]pyridine-2-carboxamide] | 200 to 2000
Cc1ccc2c(N)c(C(=O)N[C@H]3COc4nc(N5C[C@@H](N)C6(C5)OCCO6)ccc4C3)sc2n1 [Example 544, 3-amino-N-[(3R)-7-[(9R)-9-amino-1,4-dioxa-7-azaspiro[4.4]nonan-7-yl]-2H,3H,4H-pyrano[2,3-b]pyridin-3-yl]-6-methylthieno[2,3-b]pyridine-2-carboxamide] | 200 to 2000
Cc1ccc2c(N)c(C(=O)N[C@H]3COc4cc(N5C[C@H](N)[C@@]6(CCCCO6)C5)ccc4C3)sc2n1 [Example 611-1, 3-amino-N-[(3R)-7-[(4S,5R)-4-amino-6-oxa-2-azaspiro[4.5]decan-2-yl]-3,4-dihydro-2H-1-benzopyran-3-yl]-6-methylthieno[2,3-b]pyridine-2-carboxamide] | 1 to 50
Cc1ccc2c(N)c(C(=O)N[C@H]3COc4cc(N5C[C@@H](N)[C@]6(CCCCO6)C5)ccc4C3)sc2n1 [Example 611-2, 3-amino-N-[(3R)-7-[(4R,5S)-4-amino-6-oxa-2-azaspiro[4.5]decan-2-yl]-3,4-dihydro-2H-1-benzopyran-3-yl]-6-methylthieno[2,3-b]pyridine-2-carboxamide] | 1 to 50
Cc1ccc2c(N)c(C(=O)N[C@H]3COc4cc(N5C[C@H](N)[C@@]6(C5)OCC[C@@H]6C)ccc4C3)sc2n1 [Example 612-1, 3-amino-N-[(3R)-7-[(4S,5R,9S)-9-amino-4-methyl-1-oxa-7-azaspiro[4.4]nonan-7-yl]-3,4-dihydro-2H-1-benzopyran-3-yl]-6-methylthieno[2,3-b]pyridine-2-carboxamide] | 1 to 50
Cc1ccc2c(N)c(C(=O)N[C@H]3COc4cc(N5C[C@H](N)[C@@]6(C5)OCC[C@H]6C)ccc4C3)sc2n1 [Example 612-2, 3-amino-N-[(3R)-7-[(4R,5R,9S)-9-amino-4-methyl-1-oxa-7-azaspiro[4.4]nonan-7-yl]-3,4-dihydro-2H-1-benzopyran-3-yl]-6-methylthieno[2,3-b]pyridine-2-carboxamide] | 1 to 50
Cc1ccc2c(N)c(C(=O)N[C@H]3COc4cc(N5C[C@H](N)[C@]6(CCCCO6)C5)ccc4C3)sc2n1 [Example 652, 3-amino-N-[(3R)-7-[(4S,5S)-4-amino-6-oxa-2-azaspiro[4.5]decan-2-yl]-3,4-dihydro-2H-1-benzopyran-3-yl]-6-methylthieno[2,3-b]pyridine-2-carboxamide] | 1 to 50
Cc1ccc2c(N)c(C(=O)N[C@H]3COc4cc(N5C[C@@H](N)[C@@]6(CCCCO6)C5)ccc4C3)sc2n1 [Example 653, 3-amino-N-[(3R)-7-[(4R,5R)-4-amino-6-oxa-2-azaspiro[4.5]decan-2-yl]-3,4-dihydro-2H-1-benzopyran-3-yl]-6-methylthieno[2,3-b]pyridine-2-carboxamide] | 1 to 50
Cc1ccc2c(N)c(C(=O)NC3COc4cc(N5CC6NCC(F)(F)C6C5)ccc4C3)sc2n1 [Example 654, N-[(3R)-7-[(3aS,6aS)-3,3-difluorooctahydropyrrolo[3,4-b]pyrrol-5-yll-3,4-dihydro-2H-1-benzopyran-3-yl]-3-amino-6-methylthieno[2,3-b]pyridine-2-carboxamide] | 1 to 50
Cc1ccc2c(N)c(C(=O)N[C@H]3COc4cc(N5CC6[C@H](C5)NCC6(F)F)ccc4C3)sc2n1 (stereo partly drawn) [Example 655, N-[(3R)-7-[(6aR)-3,3-difluorooctahydropyrrolo[3,4-b]pyrrol-5-yl]-3,4-dihydro-2H-1-benzopyran-3-yl]-3-amino-6-methylthieno[2,3-b]pyridine-2-carboxamide] | 1 to 50
Cc1ccc2c(N)c(C(=O)NC3COc4cc(N5CC6CCNCC65)cc(F)c4C3)sc2n1 [Example 664, 3-amino-N-[(3R)-7-[(1S,6R)-3,8-diazabicyclo[4.2.0]octan-8-yl]-5-fluoro-3,4-dihydro-2H-1-benzopyran-3-yl]-6-mcthylthicno[2,3-b]pyridinc-2-carboxamide] | 1 to 50
CO[C@]12CCN[C@H]1CN(c1ccc3c(c1)OC[C@H](NC(=O)c1sc4nc(C)ccc4c1N)C3)C2 [Example 666, N-[(3R)-7-[(3aS,6aS)-3a-methoxyoctahydropyrrolo[2,3-c]pyrrol-5-yl}-3,4-dihydro-2H-1-benzopyran-3-yl]-3-amino-6-methylthicno[2,3-b]pyridine-2-carboxamide] | 1 to 50
CO[C@@]12CCN[C@@H]1CN(c1ccc3c(c1)OC[C@H](NC(=O)c1sc4nc(C)ccc4c1N)C3)C2 [Example 667, N-[(3R)-7-[(3aR,6aR)-3a-methoxyoctahydropyrrolo[2,3-c]pyrrol-5-yl]-3,4-dihydro-2H-1-benzopyran-3-yl]-3-amino-6-methylthieno[2,3-b]pyridine-2-carboxamide] | 1 to 50
CCNC1CN(c2ccc3c(c2)OCC(NC(=O)c2sc4nc(C)ccc4c2N)C3)CC1COC [Example 668, 3-amino-N-[(3R)-7-[(3R,4S)-3-(ethylamino)-4-(mcthoxymcthyl)pyrrolidin-1-yl]-3,4-dihydro-2H-1-benzopyran-3-yl]-6-methylthicno[2,3-b]pyridinc-2-carboxamide] | 1 to 50
Cc1ccc2c(N)c(C(=O)NC3COc4cc(N5CC(N)C(COC(F)(F)F)C5)ccc4C3)sc2n1 [Example 672, 3-amino-N-[(3R)-7-[(3R,4R)-3-amino-4-[(trifluoromethoxy)methyl]pyrrolidin-1-yl]-3,4-dihydro-2H-1-benzopyran-3-yl]-6-methylthicno[2,3-b]pyridine-2-carboxamide] | 50 to 200
Cc1ccc2c(N)c(C(=O)N[C@H]3COc4cc(N5C[C@H](COC(F)(F)F)[C@H](N)C5)ccc4C3)sc2n1 [Example 673, 3-amino-N-[(3R)-7-[(3S,4S)-3-amino-4-[(trifluoromethoxy)methyl]pyrrolidin-1-yl]-3,4-dihydro-2H-1-benzopyran-3-yl]-6-methylthieno[2,3-b]pyridine-2-carboxamide] | 1 to 50
CNc1ncc(C(=O)N[C@H]2COc3cc(N4CCNCC4)ccc3C2)c2[nH]ccc12 [Example 674, 4-(methylamino)-N-[(3R)-7-(piperazin-1-yl)-3,4-dihydro-2H-1-benzopyran-3-yl]-1Hpyrrolo[3,2-c]pyridine-7-carboxamide] | 200 to 2000
CNc1ncc(C(=O)N[C@H]2COc3cc(N4CCNCC4)ccc3C2)c2[nH]cc(Cl)c12 [Example 675, 3-chloro-4-(methylamino)-N-[(3R)-7-(piperazin-1-yl)-3,4-dihydro-2H-1-benzopyran-3-yl]-1H-pyrrolo[3,2-c]pyridine-7-carboxamide] | 200 to 2000
CCOc1ncc(C(=O)N[C@H]2COc3cc(N4CCNCC4)ccc3C2)c2[nH]ccc12 [Example 676, 4-ethoxy-N-[(3R)-7-(piperazin-1-yl)-3,4-dihydro-2H-1-benzopyran-3-yl]-1Hpyrrolo[3,2-c]pyridine-7-carboxamide] | 200 to 2000
CNc1ncc(C(=O)N[C@H]2COc3cc(N4CCNCC4)ccc3C2)c2c1CCCN2 [Example 677, 5-(methylamino)-N-[(3R)-7-(piperazin-1-yl)-3,4-dihydro-2H-1-benzopyran-3-yl]-1,2,3,4-tetrahydro-1,6-naphthyridine-8-carboxamide] | 200 to 2000
CCOc1ncc(C(=O)N[C@H]2COc3cc(N4CCNCC4)ccc3C2)c2c1CCCN2 [Example 678, 5-ethoxy-N-[(3R)-7-(piperazin-1-yl)-3,4-dihydro-2H-1-benzopyran-3-yl]-1,2,3,4-tetrahydro-1,6-naphthyridine-8-carboxamide] | 1 to 50
CN[C@H]1CN(c2ccc3c(c2)OC[C@H](NC(=O)c2sc4nc(C)ccc4c2N)C3)C[C@H]1COC [Example 679, 3-amino-N-[(3R)-7-[(3R,4R)-3-(methoxymethyl)-4-(methylamino)pyrrolidin-1-yl]-3,4-dihydro-2H-1-benzopyran-3-yl]-6-methylthieno[2,3-b]pyridine-2-carboxamide] | 1 to 50
